Assay [1] concerns the target T1, hAChE (recombinant human AChE; AChE from human erythrocytes in Table 1) (Homo sapiens, UniProt P22303).
T1 construct: commercial recombinant human AChE (Sigma-Aldrich) per methods
Nature of the assay: Ellman assay, […] nm. Format: biochemical.

Assay [2] concerns the target T2, hBChE (BChE from human plasma; serum hBChE) (Homo sapiens, UniProt P06276).
T2 construct: native, commercial from human plasma / serum (Sigma-Aldrich)
Nature of the assay: Ellman assay, […] nm. The class given is biochemical. (In general: In Ellman's method for cholinesterases, released thiocholine reacts with DTNB.)

T1 sequence (P22303 32-614): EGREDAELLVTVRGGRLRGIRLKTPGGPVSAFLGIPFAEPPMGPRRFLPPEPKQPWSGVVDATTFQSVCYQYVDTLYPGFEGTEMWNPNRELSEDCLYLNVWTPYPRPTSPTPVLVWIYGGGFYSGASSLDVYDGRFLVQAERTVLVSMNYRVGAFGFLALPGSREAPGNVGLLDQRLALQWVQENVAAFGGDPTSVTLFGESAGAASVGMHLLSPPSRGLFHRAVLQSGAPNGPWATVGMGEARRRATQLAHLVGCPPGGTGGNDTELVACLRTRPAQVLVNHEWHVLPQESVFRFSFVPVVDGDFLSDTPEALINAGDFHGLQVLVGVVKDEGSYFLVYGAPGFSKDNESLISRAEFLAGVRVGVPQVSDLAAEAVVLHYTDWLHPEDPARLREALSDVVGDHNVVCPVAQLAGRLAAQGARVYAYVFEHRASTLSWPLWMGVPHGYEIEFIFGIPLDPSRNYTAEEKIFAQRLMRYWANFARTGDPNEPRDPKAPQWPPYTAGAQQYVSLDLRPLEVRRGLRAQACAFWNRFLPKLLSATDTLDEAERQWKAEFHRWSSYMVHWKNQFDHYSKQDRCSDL
T2 sequence (P06276 29-602): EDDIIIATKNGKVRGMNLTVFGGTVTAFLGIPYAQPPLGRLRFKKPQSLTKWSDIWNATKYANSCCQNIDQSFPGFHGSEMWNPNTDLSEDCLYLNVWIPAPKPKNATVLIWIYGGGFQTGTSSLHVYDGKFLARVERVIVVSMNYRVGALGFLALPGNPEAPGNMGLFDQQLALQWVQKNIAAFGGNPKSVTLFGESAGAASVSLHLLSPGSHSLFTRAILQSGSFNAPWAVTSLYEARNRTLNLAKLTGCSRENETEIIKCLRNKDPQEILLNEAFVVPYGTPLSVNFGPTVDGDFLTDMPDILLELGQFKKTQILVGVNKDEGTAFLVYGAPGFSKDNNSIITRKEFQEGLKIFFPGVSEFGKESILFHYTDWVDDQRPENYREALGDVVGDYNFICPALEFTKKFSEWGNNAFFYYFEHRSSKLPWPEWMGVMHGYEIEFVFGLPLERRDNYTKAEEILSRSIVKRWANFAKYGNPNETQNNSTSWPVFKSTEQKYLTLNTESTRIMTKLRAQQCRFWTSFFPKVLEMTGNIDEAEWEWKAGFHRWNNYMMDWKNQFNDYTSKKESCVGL

The IC50 is the point on the concentration scale where inhibition reaches its midpoint. For `CCN(CCCCn1c(C)cc(=O)n(CCCCN(CC)Cc2ccccc2C#N)c1=O)Cc1ccccc1C#N` [2a, 1,3-bis[4-(o-Nitrilebenzylethylamino)butyl]-6-methyluracil], the figures for the IC50 in assay [1] and in assay [2] were 7 ± 0.5 nM and 65000 nM, respectively.
For `CCN(CCCCn1c(=O)c2ccccc2n(CCCCN(CC)Cc2ccccc2C#N)c1=O)Cc1ccccc1C#N` [4a, 1,3-bis[4-(o-Nitrilebenzylethylamino)butyl]-quinazoline-2,4-dione], the half-inhibitory concentration (IC50) is 5520 ± 400 nM in assay [1] and 2620 ± 200 nM in assay [2].
On the same counts, the results for `Cc1cc(=O)n(CCCCCNCc2ccccc2C#N)c(=O)n1CCCCCNCc1ccccc1C#N` [compound 3, 1,3-bis[5-(o-Nitrilebenzylamino)pentyl]-6-methyluracil] are 480 ± 30 nM and 1800 ± 170 nM.
Take `Cc1cc(=O)n(CCCCCN=Cc2ccccc2C#N)c(=O)n1CCCCCN=Cc1ccccc1C#N` [compound 13, 1,3-bis[5-(o-Nitrilebenzyl)aldiminopentyl]-6-methyluracil]: the IC50 in assay [1] was found to be 2320 ± 170 nM; in assay [2], 2160 ± 150 nM.

For the origin of these results see paper PMC7571187, “Novel Acetylcholinesterase Inhibitors Based on Uracil Moiety for Possible Treatment of Alzheimer Disease” (Molecules, 2020).
